IC50 data for four compounds are collected here from article PMC3831292 (Frontiers in Pharmacology, 2013).

Holding throughout (assay): two-electrode voltage clamp, Xenopus oocytes
Holding throughout (format): cell-based

In one assay the target is T1, hTRESK (K2P18.1, KCNK18) (Homo sapiens, UniProt Q7Z418).
T1 construct: full-length cDNA in plasmid pEXO; cRNA injected into Xenopus laevis oocytes
T1 sequence (Q7Z418 1-384): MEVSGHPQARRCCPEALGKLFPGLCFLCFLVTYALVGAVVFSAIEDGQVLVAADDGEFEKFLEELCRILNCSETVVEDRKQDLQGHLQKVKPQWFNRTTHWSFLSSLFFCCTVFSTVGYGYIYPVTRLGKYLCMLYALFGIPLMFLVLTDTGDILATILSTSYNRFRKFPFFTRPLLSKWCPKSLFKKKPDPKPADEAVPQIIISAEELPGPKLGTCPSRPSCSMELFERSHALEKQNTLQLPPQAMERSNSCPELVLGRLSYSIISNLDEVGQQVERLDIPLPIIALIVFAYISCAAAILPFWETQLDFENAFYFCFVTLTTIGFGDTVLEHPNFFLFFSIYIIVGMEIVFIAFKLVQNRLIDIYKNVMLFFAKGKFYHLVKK
The conditions noted are these: read-out: TRESK. An excerpt:
two-electrode voltage clamp, Xenopus oocytes on hTRESK (K2P18.1, KCNK18)

A further assay concerns the target T2, hTASK-1 (K2P3.1, KCNK3) (Homo sapiens, UniProt O14649).
T2 construct: full-length cDNA in pIRES-CD8 vector; cRNA injected into Xenopus laevis oocytes
The note with it: read-out: TASK-1. An excerpt: two-electrode voltage clamp, Xenopus oocytes on hTASK-1 (K2P3.1, KCNK3)

A further assay deals with T3, hTASK-3 (K2P9.1, KCNK9) (Homo sapiens, UniProt Q9NPC2).
T3 construct: full-length cDNA in pBR4-TOPO (mutants in pCDNA3); cRNA injected into Xenopus laevis oocytes
The conditions noted are these: read-out: TASK-3. An excerpt:
two-electrode voltage clamp, Xenopus oocytes on hTASK-3 (K2P9.1, KCNK9)

T3 sequence (Q9NPC2 whole entry): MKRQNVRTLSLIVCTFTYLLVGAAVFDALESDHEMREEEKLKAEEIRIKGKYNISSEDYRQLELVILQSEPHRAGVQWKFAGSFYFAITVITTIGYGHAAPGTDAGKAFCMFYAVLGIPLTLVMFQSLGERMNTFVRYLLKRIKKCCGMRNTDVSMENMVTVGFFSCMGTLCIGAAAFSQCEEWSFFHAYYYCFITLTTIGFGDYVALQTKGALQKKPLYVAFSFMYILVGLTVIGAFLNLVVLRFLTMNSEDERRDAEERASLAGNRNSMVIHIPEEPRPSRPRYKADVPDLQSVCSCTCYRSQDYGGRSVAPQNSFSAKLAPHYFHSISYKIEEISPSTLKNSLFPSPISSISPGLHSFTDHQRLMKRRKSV
T2 sequence (O14649 whole entry): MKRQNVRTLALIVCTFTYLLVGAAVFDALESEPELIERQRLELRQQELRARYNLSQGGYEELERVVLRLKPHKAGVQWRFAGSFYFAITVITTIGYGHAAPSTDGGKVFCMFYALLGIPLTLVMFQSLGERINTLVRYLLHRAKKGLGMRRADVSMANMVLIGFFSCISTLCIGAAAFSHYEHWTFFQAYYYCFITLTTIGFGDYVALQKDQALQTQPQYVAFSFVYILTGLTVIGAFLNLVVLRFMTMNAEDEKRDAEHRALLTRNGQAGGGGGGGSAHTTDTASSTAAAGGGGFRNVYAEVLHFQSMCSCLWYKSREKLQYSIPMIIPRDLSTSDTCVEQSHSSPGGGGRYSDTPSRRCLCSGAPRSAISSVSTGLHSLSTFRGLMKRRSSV

On to `CCCCC[C@H](O)CC(=O)CCc1ccc(O)c(OC)c1` [6-gingerol], for which the IC50 was 155 ± 70.9 µM on hTRESK (K2P18.1, KCNK18); 227 ± 46.5 µM on hTASK-1 (K2P3.1, KCNK3); 385 ± 55.6 µM on hTASK-3 (K2P9.1, KCNK9).
For `COc1cc(CNC(=O)CCCC/C=C/C(C)C)ccc1O` [capsaicin] the same measures were 70.2 ± 5.3 µM, 61.1 ± 4 µM and 41.8 ± 3.6 µM.
In the case of `O=C(/C=C/C=C/c1ccc2c(c1)OCO2)N1CCCCC1` [piperine], the IC50 at hTRESK (K2P18.1, KCNK18) was 231 ± 105 µM; on hTASK-3 (K2P9.1, KCNK9) it was 133 ± 5.9 µM.
For the compound `CC1(C)CCC[C@]2(C)[C@@H](C=O)C(C=O)=CC[C@@H]12` [polygodial], the IC50 on hTASK-1 (K2P3.1, KCNK3) stood at 485 ± 18.2 µM; at hTASK-3 (K2P9.1, KCNK9) it was 328 ± 24.7 µM.
